Measured values from ChEMBL document CHEMBL1133642, “Difluoro ketone peptidomimetics suggest a large S1 pocket for Alzheimer's gamma-secretase: implications for inhibitor design” (J Med Chem, 2000).

assay: Concentration required for 50% inhibition of Amyloid beta protein production in Amyloid precursor protein (APP)-transfected Chinese hamster ovary(CHO) cells; format: functional; settings: Cricetulus griseus

| SMILES | IC50 |
| --- | --- |
| CCC(C)[C@H](NC(=O)[C@@H](NC(=O)C(F)(F)C(=O)[C@H](C)NC(=O)[C@@H](NC(=O)OC(C)(C)C)C(C)C)C(C)C)C(=O)OCc1ccccc1 (stereo partly specified) | 4 µM |
| CCC(C)[C@H](NC(=O)[C@@H](NC(=O)C(F)(F)C(=O)[C@@H](NC(=O)[C@@H](NC(=O)OC(C)(C)C)C(C)C)c1ccccc1)C(C)C)C(=O)OC (stereo partly specified) | 9 µM |
| CCC(C)[C@H](NC(=O)[C@@H](NC(=O)C(F)(F)C(=O)[C@H](CC1CCCCC1)NC(=O)[C@@H](NC(=O)OC(C)(C)C)C(C)C)C(C)C)C(=O)OCc1ccccc1 (stereo partly specified) | 6 µM |
| CCC(C)[C@H](NC(=O)[C@@H](NC(=O)C(F)(F)C(=O)[C@H](C)NC(=O)[C@@H](NC(=O)OC(C)(C)C)C(C)C)C(C)C)C(=O)NC (stereo partly specified) | < 100 µM |
| CCC(C)[C@H](NC(=O)[C@@H](NC(=O)C(F)(F)C(=O)[C@@H](NC(=O)[C@@H](NC(=O)OC(C)(C)C)C(C)C)C(C)C)C(C)C)C(=O)OC (stereo partly specified) | 9 µM |
| CCC(C)[C@H](NC(=O)[C@@H](NC(=O)C(F)(F)C(=O)[C@H](CC1CCCCC1)NC(=O)[C@@H](NC(=O)OC(C)(C)C)C(C)C)C(C)C)C(=O)OC (stereo partly specified) | 4 µM |
| CCOC(=O)[C@@H](NC(=O)[C@@H](NC(=O)C(F)(F)C(=O)[C@H](C)NC(=O)[C@@H](NC(=O)OC(C)(C)C)C(C)C)C(C)C)C(C)CC (stereo partly specified) | 9 µM |
| CCC(C)[C@H](NC(=O)[C@@H](NC(=O)C(F)(F)C(=O)[C@H](C)NC(=O)[C@@H](NC(=O)OC(C)(C)C)C(C)C)C(C)C)C(=O)N(C)C (stereo partly specified) | 25 µM |
| CCC(C)[C@H](NC(=O)[C@@H](NC(=O)C(F)(F)C(=O)[C@@H](NC(=O)[C@@H](NC(=O)OC(C)(C)C)C(C)C)C(C)CC)C(C)C)C(=O)OC (stereo partly specified) | 6 µM |
| CCC(C)[C@H](NC(=O)[C@@H](NC(=O)C(F)(F)C(=O)[C@H](C)NC(=O)[C@@H](NC(=O)OC(C)(C)C)C(C)C)C(C)C)C(=O)OC (stereo partly specified) | 15 µM |

assay: Inhibition of Amyloid beta protein production at 25 uM in Amyloid precursor protein (APP)-transfected Chinese hamster ovary(CHO) cells; format: functional; settings: Cricetulus griseus

| SMILES | inhibition at 25 µM |
| --- | --- |
| CCC(C)[C@H](NC(=O)[C@@H](NC(=O)C(F)(F)C(=O)[C@H](C)NC(=O)[C@@H](NC(=O)OC(C)(C)C)C(C)C)C(C)C)C(=O)OC (stereo partly specified) | ≥ 65% |
